{
  "source": "patent US20120178786A9",
  "about": "“Use of tetramic acid derivatives for controlling pests by drenching, drip application, or dip application” (priority 2006, published 2012)",
  "test_system": "Coccus viridis",
  "assay": "Example 11: drench of gardenia plants, Henderson-Tilton efficacy against nymphs",
  "format": "in vivo",
  "conditions": "48 mg active substance/1 potting compost, 20 G",
  "protocol": "Gardenia plants cv. […] The greenhouse temperature is 27° C. The test is evaluated 7, 15, 21 and 35 days after the treatment by determining the activity against nymphs on the leaves with the aid of the Henderson-Tilton method.",
  "data": [
    {"smiles": "CN/C(=N/CC1CCOC1)N[N+](=O)[O-]", "note": "(stereo not shown) [Dinotefuran, dinotefuran]", "values": [
      {"measurement": "Henderson-Tilton efficacy (%) against Coccus viridis", "setting": "7 d after treatment", "value": 0, "unit": "%"},
      {"measurement": "Henderson-Tilton efficacy (%) against Coccus viridis", "setting": "15 d after treatment", "value": 57, "unit": "%"},
      {"measurement": "Henderson-Tilton efficacy (%) against Coccus viridis", "setting": "21 d after treatment", "value": 85, "unit": "%"},
      {"measurement": "Henderson-Tilton efficacy (%) against Coccus viridis", "setting": "35 d after treatment", "value": 91, "unit": "%"}
    ]}
  ]
}
